As a reminder, the pIC50 is −log10 of the IC50, conventionally taken in molar units.

One experiment has as its system HepG2. The experiment is described as follows: Cytotoxicity against human HepG2 cells assessed as cell viability at 20 uM measured after 48 hrs by MTT assay relative to control. The following applies: HepG2, 48 h, read-out: Activity. Type of experiment: functional.
Experiment [1] concerns HL-60. The experiment is described as follows: Cytotoxicity against human HL60 cells assessed as cell viability at 20 uM measured after 48 hrs by MTT assay relative to control. The format is functional. Conditions: HL-60, 48 h, read-out: Activity. In general terms: Formazan colour is commonly taken as a measure of viable cells.
For a further experiment, the system named is HeLa. The experiment can be described thus: Cytotoxicity against human HeLa cells assessed as cell viability at 20 uM measured after 48 hrs by MTT assay relative to control. The following applies: read-out: Activity. Type of experiment: functional.
For the next experiment, the system named is MCF7. The experiment can be described thus: Cytotoxicity against human MCF7 cells assessed as cell viability at 20 uM measured after 48 hrs by MTT assay relative to control. The format is functional. Conditions: MCF7, 48 h, read-out: Activity.
Experiment [2] has as its system HL-60. The experiment can be described thus: Cytotoxicity against human HL60 cells assessed as reduction in cell viability measured after 48 hrs by MTT assay. Type of experiment: functional, cell-based. The following applies: HL-60, 48 h.

pIC50: −log10 of the molar value.

For the compound `CCN(CC)c1ccc2cc(C(=O)NCCCCNC(=O)/C=C/c3cc(OC)c(OC)c(OC)c3)c(=O)oc2c1`, the viability at 20 µM with HepG2 came to 93.8%; with HL-60 [1] it was 56.3%; in the experiment with HeLa it was 74.5%; in the experiment on MCF7 it was 93.8%.

Consider `CCN(CC)c1ccc2cc(C(=O)NCCNC(=O)/C(=C/c3cc(OC)c(OC)c(OC)c3)c3ccc(F)cc3)c(=O)oc2c1`, for which the viability at 20 µM came to 96% with HepG2, 68.3% in the experiment on HL-60 [1], 84.7% with HeLa and 75.3% in the experiment with MCF7. In the experiment on HL-60 [2], the pIC50 is 4.73.

On to `CCN(CC)c1ccc2cc(C(=O)NCCNC(=O)/C(=C/c3cc(OC)c(OC)c(OC)c3)c3ccc(C(F)(F)F)cc3)c(=O)oc2c1`, for which the viability at 20 µM with HepG2 worked out at 98.9%; in the experiment on HL-60 [1], 54.2%; in the experiment with HeLa, 74%; in the experiment on MCF7, 79.1%. The pIC50 with HL-60 [2] was below 4.60.

For the compound `CCN(CC)c1ccc2cc(C(=O)N3CCN(C(=O)/C=C/c4c(OC)cc(OC)cc4OC)CC3)c(=O)oc2c1`, the viability at 20 µM in the experiment with HepG2 was found to be 88.7%; in the experiment on HL-60 [1], 75.3%; with HeLa, 78.2%; in the experiment with MCF7 it was 94%.

Take `CCN(CC)c1ccc2cc(C(=O)NCCCCCCNC(=O)/C=C/c3cc(OC)c(OC)c(OC)c3)c(=O)oc2c1`: the viability at 20 µM in the experiment on HepG2 was 100%; in the experiment with HL-60 [1] it was 43.5%; with HeLa it was 72.2%; in the experiment with MCF7 it was 91%.

For `CCN(CC)c1ccc2cc(C(=O)NCCNC(=O)CCc3cc(OC)c(OC)c(OC)c3)c(=O)oc2c1`, the viability at 20 µM with HepG2 was 66.8%; with HL-60 [1] it was 80.4%; in the experiment with HeLa, 67.4%; in the experiment on MCF7, 78.2%. Besides, the pIC50 with HL-60 [2] is below 4.60.

Take `CCN(CC)c1ccc2cc(C(=O)NCCNC(=O)/C(=C/c3cc(OC)c(OC)c(OC)c3)c3ccc(OC)cc3)c(=O)oc2c1`: the viability at 20 µM was found to be 100% in the experiment on HepG2, 29.4% with HL-60 [1], 75% in the experiment on HeLa and 75.8% in the experiment with MCF7. For the same compound, the pIC50 in the experiment with HL-60 [2] was 4.86.

Take `CCN(CC)c1ccc2cc(C(=O)NCCCCNC(=O)/C(=C/c3cc(OC)c(OC)c(OC)c3)c3ccc(OC)cc3)c(=O)oc2c1`: the viability at 20 µM was determined as 100% in the experiment with HepG2, 51.3% in the experiment on HL-60 [1], 75% in the experiment with HeLa and 84.9% with MCF7.

As to `CCN(CC)c1ccc2cc(C(=O)N3CCN(C(=O)/C=C/c4ccc(OC)cc4)CC3)c(=O)oc2c1`, the viability at 20 µM turned out to be 98.9% in the experiment with HepG2, 85.6% in the experiment with HL-60 [1], 81.6% with HeLa and 98.1% in the experiment with MCF7.

As for `CCN(CC)c1ccc2cc(C(=O)N3CCN(C(=O)/C(=C/c4cc(OC)c(OC)c(OC)c4)c4ccc(OC)c(OC)c4)CC3)c(=O)oc2c1`, the viability at 20 µM with HepG2 stood at 82.1%; with HL-60 [1] it was 80.3%; in the experiment on HeLa, 97.8%; with MCF7 it was 100%.

In the case of `CCN(CC)c1ccc2cc(C(=O)NCCNC(=O)/C=C/c3cc(OC)c(OC)cc3OC)c(=O)oc2c1`, the viability at 20 µM with HepG2 came to 100%; in the experiment on HL-60 [1], 48.2%; with HeLa it was 72.6%; with MCF7, 76.4%. In the experiment with HL-60 [2], the pIC50 is 4.64.

As for `CCN(CC)c1ccc2cc(C(=O)N3CCN(C(=O)/C=C/c4cc(OC)c(OC)cc4OC)CC3)c(=O)oc2c1`, the viability at 20 µM in the experiment with HepG2 was found to be 99.6%; in the experiment on HL-60 [1] it was 80.1%; in the experiment on HeLa it was 84.6%; in the experiment on MCF7 it was 91.6%.

As for `CCN(CC)c1ccc2cc(C(=O)NCCNC(=O)/C(=C/c3cc(OC)c(OC)c(OC)c3)c3ccc(OC)c(F)c3)c(=O)oc2c1`, the viability at 20 µM in the experiment with HepG2 was 100%; with HL-60 [1], 67.7%; in the experiment with HeLa, 99.7%; with MCF7, 100%. Moreover, the negative logarithm of the IC50 (pIC50) in the experiment with HL-60 [2] is 4.83.

Take `CCN(CC)c1ccc2cc(C(=O)NCCCCCCNC(=O)/C(=C/c3cc(OC)c(OC)c(OC)c3)c3ccc(OC)cc3)c(=O)oc2c1`: the viability at 20 µM was 100% in the experiment on HepG2, 82.5% with HL-60 [1], 100% with HeLa and 100% in the experiment with MCF7.

Turning to `CCN(CC)c1ccc2cc(C(=O)NCCNC(=O)/C=C/c3c(OC)cc(OC)cc3OC)c(=O)oc2c1`, the viability at 20 µM amounted to 75.4% in the experiment on HepG2, 68.9% with HL-60 [1], 63.9% with HeLa and 72.1% in the experiment on MCF7. Moreover, in the experiment on HL-60 [2], the pIC50 was below 4.60.

In the case of `CCN(CC)c1ccc2cc(C(=O)N3CCN(C(=O)/C(=C/c4cc(OC)c(OC)c(OC)c4)c4ccc(OC)cc4)CC3)c(=O)oc2c1`, the viability at 20 µM was determined as 100% in the experiment on HepG2, 74.3% in the experiment with HL-60 [1], 100% in the experiment on HeLa and 100% in the experiment with MCF7.

With `CCN(CC)c1ccc2cc(C(=O)N3CCN(C(=O)/C=C/c4cc(OC)c(OC)c(OC)c4)CC3)c(=O)oc2c1`, the viability at 20 µM in the experiment on HepG2 was determined as 97.2%; in the experiment on HL-60 [1] it was 74.5%; in the experiment with HeLa, 82.6%; in the experiment with MCF7 it was 100%.

For `CCN(CC)c1ccc2cc(C(=O)NCCCCCCNC(=O)/C=C/c3ccc(OC)cc3)c(=O)oc2c1`, the viability at 20 µM is 76.6% in the experiment with HepG2, 99.8% in the experiment on HL-60 [1], 100% in the experiment with HeLa and 87.8% in the experiment with MCF7.

`CCN(CC)c1ccc2cc(C(=O)NCCNC(=O)/C=C/c3cc(OC)c(OC)c(OC)c3)c(=O)oc2c1`: the viability at 20 µM was found to be 72.9% in the experiment on HepG2, 45.5% with HL-60 [1], 61.4% with HeLa and 72.4% in the experiment with MCF7. Also, in the experiment on HL-60 [2], the pIC50 was 4.63.

As to `CCN(CC)c1ccc2cc(C(=O)NCCNC(=O)/C=C/c3ccc(OC)cc3)c(=O)oc2c1`, the viability at 20 µM in the experiment with HepG2 was found to be 68.8%; in the experiment with HL-60 [1], 78.5%; in the experiment on HeLa, 71.8%; in the experiment with MCF7, 80.7%. For the same compound, the pIC50 in the experiment with HL-60 [2] is below 4.60.

(Values after ChEMBL document CHEMBL4346666, “Synthesis, mitochondrial localization of fluorescent derivatives of cinnamamide as anticancer agents” (Eur J Med Chem, 2019).)
